Consider 12 compounds from ChEMBL document CHEMBL2040824, “The impact of ionization States of matrix metalloproteinase inhibitors on docking-based inhibitor design” (ACS Med Chem Lett, 2011).

The source made the active and inactive calls. The rule behind the calls is not given here.

In the first assay the target is Matrix metalloproteinase-9 (Homo sapiens, UniProt P14780). As to the kind of experiment: Inhibition of MMP9.
Matrix metalloproteinase-9, sequence (P14780 whole entry): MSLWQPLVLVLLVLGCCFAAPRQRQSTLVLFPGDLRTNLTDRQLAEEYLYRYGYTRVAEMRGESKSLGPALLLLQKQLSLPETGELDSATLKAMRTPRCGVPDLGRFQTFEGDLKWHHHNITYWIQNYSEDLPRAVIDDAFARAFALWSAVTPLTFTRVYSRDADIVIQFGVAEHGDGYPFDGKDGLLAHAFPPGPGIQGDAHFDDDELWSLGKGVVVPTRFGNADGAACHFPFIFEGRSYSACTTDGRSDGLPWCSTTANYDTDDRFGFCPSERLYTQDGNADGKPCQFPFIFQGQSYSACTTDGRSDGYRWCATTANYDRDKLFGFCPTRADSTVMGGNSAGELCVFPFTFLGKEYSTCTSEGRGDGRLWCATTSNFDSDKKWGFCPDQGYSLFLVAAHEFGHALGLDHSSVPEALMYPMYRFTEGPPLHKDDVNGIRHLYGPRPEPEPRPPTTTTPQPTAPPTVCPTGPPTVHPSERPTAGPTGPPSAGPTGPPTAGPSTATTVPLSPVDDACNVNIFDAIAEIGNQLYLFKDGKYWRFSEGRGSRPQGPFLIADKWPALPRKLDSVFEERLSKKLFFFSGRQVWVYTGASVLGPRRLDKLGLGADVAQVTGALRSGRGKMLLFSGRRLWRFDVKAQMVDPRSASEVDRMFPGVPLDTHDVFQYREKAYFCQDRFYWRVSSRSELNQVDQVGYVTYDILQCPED
`C[C@@H]1OC(C)(C)O[C@H]1C(CS(=O)(=O)c1ccc(Oc2ccc(OC(F)(F)F)cc2)cc1)N(O)C=O` (some centres not stated) showed a half-maximal inhibitory concentration (IC50) of 1.1 nM. In turn, `CC1(C)C[C@@H](C(CS(=O)(=O)c2ccc(Oc3ccc(OC(F)(F)F)cc3)cc2)N(O)C=O)N(S(C)(=O)=O)C1` (some centres not stated) showed an IC50 of 2 nM.

In turn, `CC1(C)NC(=O)N(CC(CS(=O)(=O)c2ccc(Oc3ccc(Cl)cc3)cc2)N(O)C=O)C1=O` (configuration not stated) yielded an IC50 of 37 nM. The compound `CC1(C)NC(=O)N(CC(CS(=O)(=O)c2ccc(-c3ccc(OC(F)(F)F)cc3)cc2)N(O)C=O)C1=O` (configuration not stated) came in with a concentration for half-maximal inhibition (IC50) of 0.34 nM. `CCC1(CC)OC[C@H](C(CS(=O)(=O)c2ccc(Oc3ccc(OC(F)(F)F)cc3)cc2)N(O)C=O)O1` (some centres not stated) displayed an IC50 of 1.1 nM. As for `CC1(C)OC[C@H](C(CS(=O)(=O)c2ccc(Oc3ccc(OC(F)(F)F)cc3)cc2)N(O)C=O)O1` (some centres not stated), 0.5 nM corresponded to half-maximal inhibition (IC50). In the case of `O=CN(O)C(CS(=O)(=O)c1ccc(Oc2ccc(OC(F)(F)F)cc2)cc1)C(CO)CO` (configuration not stated), the IC50 was found to be 0.49 nM.

In a further assay the test system is SVR. As to the kind of experiment: Antiproliferative activity against mouse SVR cells at 20 ug/ml after 48 hrs by Coulter counting method. The format is functional, cell-based.
With `Cc1cc(C)n(-c2nc(-c3ccccc3)cc(-c3ccccc3)n2)n1`, the result was Active. For `CN(C)c1ccc(/C=C/C(=O)c2ccco2)cc1`, the outcome was Active. As to `COc1cc(/C=C/C(=O)CC(=O)/C=C/c2ccc(O)c(OC)c2)ccc1O`, the outcome was Active. As for `Brc1ccc(/C=N/Nc2nc(-c3ccccc3)cc(-c3ccccc3)n2)cc1`, the result was Active. On the same count and under the same terms, next, `Cc1cccc(-c2nnc(-c3cccc(NC(=O)c4ccco4)c3)o2)c1`: “Active”.
